In PubChem BioAssay (NCI):
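Test compounds were applied to cells in 96-well plates for 48 hours at 5 doses. GI50 marks 50% less growth. TGI marks complete inhibition of growth.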

What was measured:
Test in all cases: inhibition of tumour cell growth, NCI panel, 48 h
NCI-H23 lung = system: NCI-H23 lung
NCI-H460 lung = system: NCI-H460 lung
NCI-H522 lung = system: NCI-H522 lung
NCI/ADR-RES ovarian = system: NCI/ADR-RES ovarian
OVCAR-3 ovarian = system: OVCAR-3 ovarian
OVCAR-4 ovarian = system: OVCAR-4 ovarian
OVCAR-5 ovarian = system: OVCAR-5 ovarian
OVCAR-8 ovarian = system: OVCAR-8 ovarian
PC-3 prostate = system: PC-3 prostate
RPMI-8226 leukemia = system: RPMI-8226 leukemia
RXF 393 renal = system: RXF 393 renal
SF-268 CNS = system: SF-268 CNS
SF-295 CNS = system: SF-295 CNS
SF-539 CNS = system: SF-539 CNS
SK-MEL-2 melanoma = system: SK-MEL-2 melanoma
SK-MEL-28 melanoma = system: SK-MEL-28 melanoma
SK-MEL-5 melanoma = system: SK-MEL-5 melanoma
SK-OV-3 ovarian = system: SK-OV-3 ovarian
SN12C renal = system: SN12C renal
SNB-19 CNS = system: SNB-19 CNS
SNB-75 CNS = system: SNB-75 CNS
SR leukemia = system: SR leukemia
SW-620 colon = system: SW-620 colon
T-47D breast = system: T-47D breast
TK-10 renal = system: TK-10 renal
U251 CNS = system: U251 CNS
UACC-257 melanoma = system: UACC-257 melanoma
UACC-62 melanoma = system: UACC-62 melanoma
UO-31 renal = system: UO-31 renal

Q: For CC(=O)Oc1ccc(C23c4ccccc4C2(OC(C)=O)c2cc(OC(C)=O)ccc23)cc1 (stereo not drawn), which GI50 (NCI-H23 lung) is on record?
A: 10.2 µM

Q: What about the TGI (NCI-H23 lung) of the same compound?
A: 28.5 µM

Q: What about the GI50 (NCI-H460 lung) of the same compound?
A: 12.3 µM

Q: What about the TGI (NCI-H460 lung) of the same compound?
A: 44.4 µM

Q: What about the GI50 (NCI-H522 lung) of the same compound?
A: 2810 nM

Q: And the TGI (NCI-H522 lung)?
A: 8.04 µM

Q: What about the GI50 (NCI/ADR-RES ovarian) of the same compound?
A: 2820 nM

Q: And the TGI (NCI/ADR-RES ovarian)?
A: 10.2 µM

Q: And the GI50 (OVCAR-3 ovarian)?
A: 8.32 µM

Q: What about the TGI (OVCAR-3 ovarian) of the same compound?
A: 52.9 µM

Q: What about the GI50 (OVCAR-4 ovarian) of the same compound?
A: 30 µM

Q: What about the TGI (OVCAR-4 ovarian) of the same compound?
A: > 100 µM

Q: And the GI50 (OVCAR-5 ovarian)?
A: 5.54 µM

Q: What about the TGI (OVCAR-5 ovarian) of the same compound?
A: 18 µM

Q: What about the GI50 (OVCAR-8 ovarian) of the same compound?
A: 4.28 µM

Q: What about the TGI (OVCAR-8 ovarian) of the same compound?
A: 49.5 µM

Q: And the GI50 (PC-3 prostate)?
A: 3 µM

Q: And the TGI (PC-3 prostate)?
A: 11.9 µM

Q: And the GI50 (RPMI-8226 leukemia)?
A: 2290 nM

Q: And the TGI (RPMI-8226 leukemia)?
A: 6.66 µM

Q: What about the GI50 (RXF 393 renal) of the same compound?
A: 3.38 µM

Q: What about the TGI (RXF 393 renal) of the same compound?
A: 12.3 µM

Q: And the GI50 (SF-268 CNS)?
A: 5.54 µM

Q: What about the TGI (SF-268 CNS) of the same compound?
A: 22 µM

Q: What about the GI50 (SF-295 CNS) of the same compound?
A: 4.37 µM

Q: And the TGI (SF-295 CNS)?
A: 20.4 µM

Q: And the GI50 (SF-539 CNS)?
A: 6.48 µM

Q: And the TGI (SF-539 CNS)?
A: 28.6 µM

Q: What about the GI50 (SK-MEL-2 melanoma) of the same compound?
A: 27.7 µM

Q: What about the TGI (SK-MEL-2 melanoma) of the same compound?
A: 94.3 µM

Q: And the GI50 (SK-MEL-28 melanoma)?
A: 31.6 µM

Q: What about the TGI (SK-MEL-28 melanoma) of the same compound?
A: > 100 µM

Q: What about the GI50 (SK-MEL-5 melanoma) of the same compound?
A: 6.19 µM

Q: And the TGI (SK-MEL-5 melanoma)?
A: 20.3 µM

Q: What about the GI50 (SK-OV-3 ovarian) of the same compound?
A: 20.5 µM

Q: And the TGI (SK-OV-3 ovarian)?
A: 47.6 µM

Q: What about the GI50 (SN12C renal) of the same compound?
A: 5.37 µM

Q: And the TGI (SN12C renal)?
A: 20.2 µM

Q: And the GI50 (SNB-19 CNS)?
A: 4.64 µM

Q: What about the TGI (SNB-19 CNS) of the same compound?
A: 15.5 µM

Q: And the GI50 (SNB-75 CNS)?
A: 6.49 µM

Q: And the TGI (SNB-75 CNS)?
A: 54.7 µM

Q: What about the GI50 (SR leukemia) of the same compound?
A: 3.14 µM

Q: What about the TGI (SR leukemia) of the same compound?
A: 24.2 µM

Q: What about the GI50 (SW-620 colon) of the same compound?
A: 3.73 µM

Q: What about the TGI (SW-620 colon) of the same compound?
A: 12.7 µM

Q: And the GI50 (T-47D breast)?
A: 2220 nM

Q: And the TGI (T-47D breast)?
A: 7.45 µM

Q: What about the GI50 (TK-10 renal) of the same compound?
A: 6.23 µM

Q: And the TGI (TK-10 renal)?
A: > 100 µM

Q: What about the GI50 (U251 CNS) of the same compound?
A: 2340 nM

Q: What about the TGI (U251 CNS) of the same compound?
A: 5.63 µM

Q: What about the GI50 (UACC-257 melanoma) of the same compound?
A: 22.9 µM

Q: And the TGI (UACC-257 melanoma)?
A: 60.8 µM

Q: And the GI50 (UACC-62 melanoma)?
A: 3.69 µM

Q: And the TGI (UACC-62 melanoma)?
A: 13.7 µM

Q: What about the GI50 (UO-31 renal) of the same compound?
A: 1850 nM

Q: What about the TGI (UO-31 renal) of the same compound?
A: 5.02 µM
